Test results taken from US5965106A, “In vivo binding pair pretargeting” (PerImmune Holdings, Inc., priority 1995, dated 1999).

Assays:
[1] = test system: wild-type recombinant human dihydrofolate reductase (rhDHFR); details: noncovalent binding; cited from earlier work
rhDHFR [2] = assay: Inhibition of rhDHFR by MTX and DTPA-MTX (dihydrofolate reduction, A340); assay type: biochemical, human; details: 1×10^-8 M and 5×10^-9 M inhibitor concentration, 22° C., pH 7.5
Protocol: Dihydrofolate reductase concentrations of 10^-7 -10^-9 M are easily assayed by monitoring the time dependent decrease in A340 caused by the reduction of dihydrofolate and the oxidation of the cofactor nicotinadenine dinucleotide phosphate (NADPH). The assay is performed at 22° C. (room temperature) in 50 mM Tris, pH 7.5 and 60 μM NADPH and initiated by adding dihydrofolate to 50 μM. One enzyme unit is equivalent to the amount of enzyme required to reduce 1 μmole of dihydrofolate to 1 μmole tetrahydrofolate in 1 min. at 22° C. and can be quantitated using an extinction coefficient of 12,300 M^-1 cm^-1.
The inhibition rate of DHFR by MTX and its derivatives is determined by the decrease in the conversion of dihydrofolate to tetrahydrofolate. […] Derivatives of methotrexate are evaluated by comparing inhibition rates to the inhibition rate of MTX at equivalent concentrations.
The effects of modifying methotrexate with DPTA were unknown and required a comparison of the activity of equimolar concentrations of methotrexate and DTPA-MTX. […] The inhibition of rhDHFR by MTX and DTPA-MTX were then measured under the assay conditions mentioned earlier and compared.

16.88 bound rhDHFR = assay: Inhibition of DHFR bound in an antibody-DHFR complex by MTX and DTPA-MTX, versus native rhDHFR; details: 16.88-DHFR titrated to activity of native rhDHFR
[3] = Whole body clearance from athymic mice; assay type: in vivo, athymic nu/nu mice; details: 50 uCi, lateral tail vein, 0.5-24 hours
Protocol: Clearance of the ^111 In-DTPA-MTX at a rate similar to that of ^111 In-DTPA would indicate that rapid body clearance of the portion of the conjugate not bound in tumor tissue by antibody-DHFR may be expected. Such rapid clearance would ensure that nearly all the unbound radionuclide would decay outside the body.
Three athymic nu/nu mice were injected via the lateral tail vein with 50 uCi ^111 In-DTPA-MTX in 0.5 mL 10% normal mouse serum in phosphate buffered normal saline. A second group of three animals received 50 uCi ^111 In-DTPA by the same route. All animal were examined for whole body retention of In-111 in a Capintec dose calibrator at 0.5, 1, 2, 3, 4, and 24 hours after injection.

[4] = Biodistribution and clearance in nude mice; assay type: in vivo, nude mouse
Protocol: In order to compare the biodistribution and clearance of ^111 In-DTPA-MTX with that of ^111 In-DTPA in the nude mouse, ^111 In-DTPA-MTX is administered at a dose of 9 μg and 8 μCi and ^111 In-DTPA is administered at a dose of 9 μg and 7 μCi by intravenous injection into the lateral tail vein. Animals are sacrificed a 1, 2, 4 and 24 hours after injection in groups of three animals per time point. […] In addition, there is low uptake of the MTX conjugate in the liver which is not seen with the labeled DTPA.

[5] = Biodistribution and clearance in rabbits; assay type: in vivo, New Zealand white rabbit; details: rabbit
Protocol: In order to compare the biodistribution and clearance of ^111 In-DTPA-MTX with that of ^111 In-DTPA in the New Zealand white rabbit, approximately 140-190 μg and 120 μCi of each agent is administered to three animals each by intravenous injection in the central ear […]. One animal of each group is sacrificed at 1, 4 and 24 hours after injection.

[6] = in vivo; cited from earlier work
rhDHFR [7] = assay: Stability of conjugated enzyme: percent DHFR activity remaining; assay type: physicochemical, human
Protocol: A 10-fold molar excess of the photoaffinity analog was mixed with the enzyme, and the volume adjusted to a protein concentration of 1 mg/ml using 10 mM Tris-HCl buffer (pH 7.5). The mixture was kept in ice at a 10 cm distance from the light source while photoactivation was carried out for 5 minutes with occasional stirring. An aliquot was assayed for DHFR activity before and after photoactivation. The NADP^+ -linked enzyme was purified by gel-filtration using 10 mM sodium phosphate buffer, pH 7.2, containing 20 mM NaCl. Fractions were assayed for DHFR activity before they were pooled for protein estimation (using Pierce BCA reagent) and determination of incorporation of NADP^+ moieties per enzyme molecule.
[…] Percent stability was calculated by comparing with a sample kept at 4° C.

NC(=O)C1=CN([C@@H]2O[C@H](COP(=O)(O)OP(=O)(O)OC[C@H]3O[C@@H](n4cnc5c(N)ncnc54)[C@H](OP(=O)(O)O)[C@@H]3O)[C@@H](O)[C@H]2O)C=CC1 [NADPH, nicotinadenine dinucleotide phosphate]
protection of rhDHFR from thermal denaturation [1]: capable of protecting

CN(Cc1cnc2nc(N)nc(N)c2n1)c1ccc(C(=O)N[C@@H](CCC(=O)NNC(=O)CN(CCN(CCN(CC(=O)O)CC(=O)O)CC(=O)O)CC(=O)O)C(=O)O)cc1 [DTPA-MTX]
inhibitory effect on dihydrofolate reduction compared with MTX (rhDHFR [2]): virtually identical to MTX inhibition | inhibition of/binding to 16.88 bound rhDHFR compared with equivalent activity of native rhDHFR (16.88 bound rhDHFR): confirmed the methotrexate data

NC(=O)c1ccc[n+]([C@@H]2O[C@H](COP(=O)([O-])OP(=O)(O)OC[C@H]3O[C@@H](n4cnc5c(N)ncnc54)[C@H](OP(=O)(O)O)[C@@H]3O)[C@@H](O)[C@H]2O)c1 [NADP]
protection of rhDHFR from thermal denaturation [1]: capable of protecting

O=C([O-])CN(CCN(CC(=O)[O-])CC(=O)[O-])CCN(CC(=O)[O-])CC(=O)[O-].[111In+3].[H+].[H+] [^111 In-DTPA]
whole body clearance [3]: clear from the mice at similar rates | injected dose per gram (ml) remaining in the serum ([4]; 1 hour post injection, i.v., 9 μg): less than 0.2% | kidney activity (clearance via urine) ([4]; nude mouse, all time points 1-24 hours): activity in the kidney at all time points | liver uptake ([4]; nude mouse, i.v.): not seen | kidney activity levels ([5]; i.v.): Low activity levels | urine activity (clearance via urine) ([5]; i.v. 140-190 μg, 120 μCi): high urine activity levels | clearance from the circulation [6]: clear rapidly from the circulation | retention in normal tissues [6]: little retention in normal tissues

B1: ANPAP-NADP^+ -rhDHFR: DHFR stabilized through covalent conjugation with a photoaffinity analog of NADP^+ (ANPAP-NADP) followed by photoactivation (conjugate, UniProt P00374 1-187, looked up)
Dihydrofolate reductase: MVGSLNCIVAVSQNMGIGKNGDLPWPPLRNEFRYFQRMTTTSSVEGKQNLVIMGKKTWFSIPEKNRPLKGRINLVLSRELKEPPQGAHFLSRSLDDALKLTEQPELANKVDMVWIVGGSSVYKEAMNHPGHLKLFVTRIMQDFESDTFFPEIDLEKYKLLPEYPGVLSDVQEEKGIKYKFEVYEKND
modifications: photo-crosslinked ANPAP-NADP+ analog
Stability: percent enzyme activity remaining after incubation (rhDHFR [7]; 0 minutes, 37° C.): 100% | Stability: percent enzyme activity remaining after incubation (rhDHFR [7]; 60 minutes, 37° C.): 82% | Stability: percent enzyme activity remaining after incubation (rhDHFR [7]; 120 minutes, 37° C.): 78% | Stability: percent enzyme activity remaining after incubation (rhDHFR [7]; 180 minutes, 37° C.): 78% | Stability: percent enzyme activity remaining after incubation (rhDHFR [7]; 1080 minutes, 23° C.): 67% | Percent remaining activity following photoactivation (rhDHFR [7]; photoactivation time 5 minutes): 100%

B2: rhDHFR: recombinant human dihydrofolate reductase (protein, UniProt P00374 1-187, looked up)
Dihydrofolate reductase: B1 Dihydrofolate reductase
Stability: percent enzyme activity remaining after incubation (rhDHFR [7]; 0 minutes, 37° C.): 100% | Stability: percent enzyme activity remaining after incubation (rhDHFR [7]; 30 minutes, 37° C.): 18% | Stability: percent enzyme activity remaining after incubation (rhDHFR [7]; 60 minutes, 37° C.): 10%
